{"source": "patent US12152016B2", "about": "“Aryl hydrocarbon receptor modulators and uses thereof” (Beth Israel Deaconess Medical Center, Inc., priority 2018, dated 2024)", "target": "T1, AhR (Homo sapiens, UniProt P35869)", "T1 construct": "endogenous in cells; host or cells: HepG2 (human liver cancer cell line)", "T1 sequence (P35869 11-848)": "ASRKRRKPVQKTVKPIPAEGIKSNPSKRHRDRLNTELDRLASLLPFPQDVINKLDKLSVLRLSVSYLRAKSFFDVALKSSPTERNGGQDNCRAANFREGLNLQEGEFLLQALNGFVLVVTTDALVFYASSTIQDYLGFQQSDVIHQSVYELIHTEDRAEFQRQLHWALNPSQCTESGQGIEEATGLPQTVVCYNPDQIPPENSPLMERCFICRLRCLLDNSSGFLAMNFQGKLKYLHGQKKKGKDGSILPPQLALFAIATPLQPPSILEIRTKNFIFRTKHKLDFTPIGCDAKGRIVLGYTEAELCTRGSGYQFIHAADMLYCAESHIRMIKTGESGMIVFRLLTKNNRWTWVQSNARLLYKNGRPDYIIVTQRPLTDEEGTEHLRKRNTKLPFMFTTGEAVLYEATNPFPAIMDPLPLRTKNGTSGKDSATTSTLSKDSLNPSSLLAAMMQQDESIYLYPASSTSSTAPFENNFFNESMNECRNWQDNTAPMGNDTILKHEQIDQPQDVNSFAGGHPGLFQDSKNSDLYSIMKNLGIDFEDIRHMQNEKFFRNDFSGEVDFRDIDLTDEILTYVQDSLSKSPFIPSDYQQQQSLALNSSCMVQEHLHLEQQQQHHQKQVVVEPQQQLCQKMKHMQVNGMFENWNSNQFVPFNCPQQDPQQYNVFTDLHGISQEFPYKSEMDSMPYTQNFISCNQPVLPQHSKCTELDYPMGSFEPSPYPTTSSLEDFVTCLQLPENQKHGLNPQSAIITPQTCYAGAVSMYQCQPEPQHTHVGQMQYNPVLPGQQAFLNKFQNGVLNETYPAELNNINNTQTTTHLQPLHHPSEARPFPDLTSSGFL", "experiment": "AhR nuclear translocation assay, human HepG2", "format": "cell-based", "details": "human HepG2, 10 μM, 90 minutes", "description": "Mouse Hepa-1c1c7 or human HepG2 cells were seeded in 8 well chamber slides followed by 24 hours incubation in tryptophan deficient media (HBSS with Ca^2+ and Mg^2+, 10% heat inactivated FBS, 1× non-essential amino acids, 1× sodium pyruvate, 4.5 g/L glucose). Cells were treated with vehicle control (DMSO) or 10 μM ITE, compound 108, or compound 109 for 90 minutes in tryptophan deficient media. Following treatment, cells were fixed in 4% formaldehyde and processed according to standard immunofluorescence staining protocol. Primary anti-AhR antibody was applied at 1:100 dilution (Enzo, BML-SA210) and Alexa488 conjugated secondary antibody was applied at 1:500 dilution (Cell Signaling, 4412S). Actin was stained using Alexa 568 conjugated Phalloidin (Fisher). Samples were mounted in anti-fade mounting medium supplemented with DAPI for nuclear staining and imaged with confocal microscopy (Leica SP5×MP, 63× oil lens).", "note": "“Also recorded” adds a separate entry of the source."}
{"smiles": "N#Cc1cccc(C(=O)c2c[nH]c3ccccc23)n1", "note": "[Compound 108, 6-(1H-indole-3-carbonyl)pyridine-2-carbonitrile]", "values": [{"measurement": "AhR nuclear translocation", "result": "localized in the nucleus; also recorded: rapid nuclear enrichment of AhR"}]}
